Measured values from US9321804B2, “Synthesis and use of anti-tumor drug LQC-Y” (Beijing University of Chinese Medicine, priority 2011, dated 2016).
“Also recorded” adds a separate entry of the source. Structures can show the parent of a compound that is named as a salt.

Legend:
S180 sarcoma of mice [1] = assay: Tumor inhibiting effect of LQC-Y2 in tumor bearing S180 mice
Procedure: The S180 mice that had been inoculated for 7 days were killed by breaking the neck thereof and ascites was taken from the mice respectively in an aseptic environment and the ascites was washed using RPMI1640 culture medium for 2 times and then made into a […] /ml cell suspension using aseptic physiological saline. Then the obtained S180 cell suspension was inoculated hypodermically at the right axillary of mice, 0.1 ml for each mouse and 50 mice total, to establish the solid tumor model.
(§1) 60 mice were divided into 2 categories, including 6 groups, according to the random number table method, i.e. normal control group of the first category, and S180 solid tumor groups of the second category which included positive (cyclophosphamide) control group, negative control group, small dosage group, middle dosage group and large dosage group, 10 mice for each group. The experiment was repeated for 3 times.
LQC-Y2 was made into an emulsion using corn oil. The dosage of the small dosage group was 75 mg/Kg, the dosage of the middle dosage group was 150 mg/Kg, and the dosage of the large dosage group was 300 mg/kg. Equal volume of corn oil was injected into the mice of the negative control group, cyclophosphamide injection 0.02 g/(Kg.d) was injected into the mice of the positive control group. These medicines were administrated 0.1 ml per mouse by intraperitoneal injection every the other day continuously for 15 days. During this period, the common behavior, hair and excrement and so on were observed daily. The mice that had been inoculated with S180 by hypodermic inoculation were killed by breaking the necks thereof after 24 h after the last administration and the tumor, liver and spleen were then taken.
(§2) The weight of the solid tumor group mice were measured after all the administration was over and then the mice were killed. The spleens and the livers thereof were weighed by an electronic balance. The spleen index was calculated as the spleen weight of a mouse (mg)/the body weight of a mouse(g) and the liver index was calculated as the liver weight of a mouse(100 g)/the body weight of a mouse(g).
(§3) The solid tumor negative control group mice were weighed on the next day after the administration was finished (the eyeballs of the mice were removed to bleed and the serum was collected for subsequent experimental use). Then the mice were killed by breaking the neck thereof. The tumor tissues were taken out and weighed by an electronic balance to calculate the tumor-inhibiting ratio.
(§4) All the data were statistically analyzed using SPSS11.0 software pack. The comparison of the enumeration data was carried out with X^2 test. P<0.05 had statistical significance.

S180 sarcoma of mice [2] = assay: Tumor inhibiting effect of LQC-Y3 on tumor bearing S180 mice
Procedure: The S180 mice that had been inoculated for 7 days were killed by breaking the neck thereof and ascites was taken from the mice respectively in an aseptic environment and the ascites was washed using RPMI1640 culture medium for 2 times and then made into a 2×10^7/ml cell suspension using aseptic physiological saline. Then the obtained S180 cell suspension was inoculated hypodermically at the right axillary of mice, 0.1 ml for each mouse and 50 mice total, to establish the solid tumor model.
as §1
LQC-Y3 was prepared using 0.5% CMC-Na. The dosage of the small dosage group was 75 mg/Kg, the dosage of the middle dosage group was 150 mg/Kg, and the dosage of the large dosage group was 300 mg/kg. Equal volume of 0.5% CMC-Na was injected into the mice of the negative control group and cyclophosphamide injection 0.02 g/(Kg.d) was injected into the mice of the positive control group. These medicines were administrated 0.1 ml per mouse by intraperitoneal injection every the other day continuously for 15 days. During this period, the common behavior, hair, excrement and so on were observed daily. The mice that had been inoculated with S180 by hypodermic inoculation were killed by breaking the neck thereof after 24 h after the last administration and the tumor, liver and spleen were then taken.
as §2, with “finished” for “over”, “mouse (g)” for “mouse(g)”, “mouse (100” for “mouse(100”, “mouse (g).” for “mouse(g).”
as §3, with “tumor inhibiting” for “tumor-inhibiting”
as §4

[3] = test system: Human hepatoma carcinoma cells Bel7402; assay: Proliferation of human hepatoma carcinoma cells Bel7402 by MTT; format: cell-based; conditions: for 24 h inhibition ratio (%): Bel7402 cells; for inhibiting effect on the proliferation of Bel7402 cells: cultured in vitro, 10-40 μg/ml
Procedure: Human hepatoma carcinoma cells Bel7402 were recovered and subcultured using a culture flask. The preparation of the experiment was started when the cell growth entered into the exponential growth phase. The cells were then digested using pancreatic enzyme which had been filtrated at an increased pressure to prepare the cell suspension. After that the suspension was dyed for 3 min with 0.4% trypan blue. Then a blood cell counting plate was used to count the living cells which were not dyed and the dead cells which were dyed to blue. The number of the living cells identified by trypan blue was more than 98%.
Three kinds of cells which were in the exponential growth phase were inoculated at the density of 1×10^4/ml, to a 96-well plate, 200 μl for each well. Then the plate was put in a 37° C. 5% CO2 incubation box to be cultured for 24 h. The cultivation liquid was sucked away and 200 μl LQC-Y solutions of different concentrations were added thereinto (prepared with DMEM cultivation liquid containing 4% calf serum and the final concentration of which respectively were 10 μg, 20 μg, 40 μg), 4 parallel wells for each concentration. Supernatant cultivation liquid 100 μl was sucked away carefully from each well after being cultured for 24 h and 48 h, and MTS 20 μl was added into each well and homogeneously mixed. The resultant liquid was cultured in a 37° C. 5% CO2 incubation box for a further 1 h. An enzyme-labeling quantitative instrument was used to measure the absorbance at 492 nm. The experiment was repeated for 3 times and then an inhibition ratio was calculated.
The inhibition ratio of cell proliferation (%)=[(average OD value of control group-average OD value of the administration group)/average OD value of control group]×100%

[4] = test system: Human hepatoma carcinoma cells Bel7402; assay: as above; format: cell-based; conditions: 40 μg/ml
ICR white mice = assay: Acute toxic experiment of mice by oral administration; format: in vivo; parameters: key to Animal reaction in 14 days after the administration: Appearance / Animal reaction in 14 days after the administration: Behavior / Animal reaction in 14 days after the administration: Hair / Animal reaction in 14 days after the administration: Respiration / Animal reaction in 14 days after the administration: Posture / Animal reaction in 14 days after the administration: Reaction: ✓ means normal; conditions: for Animal reaction in 14 days after the administration: Death: 10 animals; for Animal reaction in 14 days after the administration: Death / Animal reaction in 14 days after the administration: Appearance / Animal reaction in 14 days after the administration: Behavior / Animal reaction in 14 days after the administration: Hair / Animal reaction in 14 days after the administration: Posture / Animal reaction in 14 days after the administration: Reaction / Animal reaction in 14 days after the administration: Respiration: oral 3 x 2000 mg/kg (6000 mg/kg) in one day
Procedure: 1. Experimental Project: Acute Toxic Experiment of Mice by Oral Administration
ICR white mice (half female and half male, 18-22 g, experiment animal certificate No.: SCXK (Jing) 2006-0009);
LQC-Y3 (white powder (self prepared); and LQC-Y3 5000 mg was dissolved into 0.5% sodium carboxymethyl cellulose 100 ml and then suspended by supersonic wave. The suspension was used in situ).
The qualified animals were quarantined and weighed before the administration. Then the animals were divided into groups randomly by weight. The intragastric administration tool for mice was used to carry out the intragastric administration. The mice were fasted but not water-deprived (continuously for 14 h) overnight before being administrated. The mice were administrated at 9:00 AM for the first time (2000 mg/kg) on the present administration day and observed continuously for 1 h. The mice were administrated for the second time (2000 mg/kg) at an interval of 6 h since the first administration and observed continuously for 1 h. The mice were administrated for the third time (2000 mg/kg) at an interval of 6 h since the second administration, observed continuously for 1 h and then the mice were fed.

[5] = S180 Balb/C mice, cyclophosphamide 0.02 g/(Kg.d) i.p., 15 days
[6] = S180 mice, cyclophosphamide 0.02 g/(Kg.d) i.p., 15 days
[7] = S180 Balb/C mice, large dosage 300 mg/kg i.p. every other day, 15 days
[8] = S180 Balb/C mice, middle dosage 150 mg/Kg i.p. every other day, 15 days
[9] = S180 Balb/C mice, small dosage 75 mg/Kg i.p. every other day, 15 days

Structure (SMILES): O=P1(N(CCCl)CCCl)NCCCO1 (stereo not shown) [Cyclophosphamide, reference compound]
- liver index compared with the negative control group (S180 sarcoma of mice [1]; LQC-Y2 dosage groups, cyclophosphamide 0.02 g/(Kg.d)): smaller than those of the negative control group
- Tumor inhibiting ratio (%) (S180 sarcoma of mice [1]; [5]): 88.55%
- Tumor weight (g) (S180 sarcoma of mice [1]; [5]): 0.15 ± 0.13^(4) g
- Weight growth (g) (S180 sarcoma of mice [1]; [5]): 8.98 ± 3.80^(1)(3) g
- Spleen index (100 g/g) (S180 sarcoma of mice [1]; [6]): 5.29 ± 0.47^(1)(4) 100 g/g
- liver index compared with the negative control group (S180 sarcoma of mice [2]; LQC-Y3 dosage groups, cyclophosphamide 0.02 g/(Kg.d)): smaller than those of the negative control group
- Tumor inhibiting ratio (%) (S180 sarcoma of mice [2]; [5]): 73.40%
- Tumor weight (g) (S180 sarcoma of mice [2]; [5]): 0.25 ± 0.16^(4) g
- Weight growth (g) (S180 sarcoma of mice [2]; [5]): 6.90 ± 2.04^(1)(3) g
- Liver index (100 g/g) (S180 sarcoma of mice [2]; [6]): 5.19 ± 0.33 100 g/g

Structure (SMILES): Cc1nc(C)c(COC(=O)CCC(C)C2CCC3C4C(O)CC5CC(O)CCC5(C)C4CC(O)C23C)nc1C (stereo not shown) [LQC-Y1, (3,5,6-trimethyl pyrazine-2-yl)methyl-4-(3,7,12-trihydroxy-10,13-dimethylhexadecahydro-1H-cyclopenta[a]phenanthren-17-yl)pentanoate]
- 24 h inhibition ratio (%) ([3]; 10 μg/ml): 67.39%
- 24 h inhibition ratio (%) ([3]; 20 μg/ml): 76.66%
- inhibiting effect on the proliferation of Bel7402 cells [3]: evident inhibiting effect
- 24 h inhibition ratio (%) [4]: 86.44%

Structure (SMILES): Cc1nc(C)c(COC(=O)C23CCC(C)(C)CC2C2=CCC4C5(C)CCC(O)C(C)(C)C5CCC4(C)C2(C)CC3)nc1C (stereo not shown) [LQC-Y3, (3,5,6-trimethyl pyrazine-2-yl)methyl-10-hydroxy-2,2,6a,6b,9,9,12a-heptamethyl-1,2,3,4,4a,5,6,6a,6b,7,8,8a,9,10,11,12,12a,12b,13,14b-eicosahydropicene-4a-carboxylate]
- toxic reaction (ICR white mice; mice, maximum dosage of 6000 mg/kg per day, oral, observed continuously for 14 days, 6000 mg/kg/day): No toxic reaction; also recorded: no toxic or side effect
- Animal reaction in 14 days after the administration: Death (ICR white mice; ♀ ICR mice): 0
- Animal reaction in 14 days after the administration: Appearance (ICR white mice; ♀ ICR mice): ✓
- Animal reaction in 14 days after the administration: Behavior (ICR white mice; ♀ ICR mice): ✓
- Animal reaction in 14 days after the administration: Hair (ICR white mice; ♀ ICR mice): ✓
- Animal reaction in 14 days after the administration: Posture (ICR white mice; ♀ ICR mice): ✓
- Animal reaction in 14 days after the administration: Reaction (ICR white mice; ♀ ICR mice): ✓
- Animal reaction in 14 days after the administration: Respiration (ICR white mice; ♀ ICR mice): ✓
- Animal reaction in 14 days after the administration: Death (ICR white mice; ♂ ICR mice): 0
- Animal reaction in 14 days after the administration: Appearance (ICR white mice; ♂ ICR mice): ✓
- Animal reaction in 14 days after the administration: Behavior (ICR white mice; ♂ ICR mice): ✓
- Animal reaction in 14 days after the administration: Hair (ICR white mice; ♂ ICR mice): ✓
- Animal reaction in 14 days after the administration: Posture (ICR white mice; ♂ ICR mice): ✓
- Animal reaction in 14 days after the administration: Reaction (ICR white mice; ♂ ICR mice): ✓
- Animal reaction in 14 days after the administration: Respiration (ICR white mice; ♂ ICR mice): ✓
- effect on the growth of the S180 mice sarcoma (S180 sarcoma of mice [2]; 75-300 mg/kg i.p.): can Notably Inhibit the Growth; also recorded: inhibit the growth of S180 tumor effectively
- Tumor inhibiting ratio (%) (S180 sarcoma of mice [2]; [7]): 50.0%
- Tumor weight (g) (S180 sarcoma of mice [2]; [7]): 0.47 ± 0.23^(3) g
- Tumor inhibiting ratio (%) (S180 sarcoma of mice [2]; [8]): 37.23%
- Tumor weight (S180 sarcoma of mice [2]; [8]): 0.59 ± 0.28 g
- Tumor inhibiting ratio (%) (S180 sarcoma of mice [2]; [9]): 33.98%
- Tumor weight (S180 sarcoma of mice [2]; [9]): 0.63 ± 0.30 g
- effect on the growth of the S180 sarcoma mice's weight (S180 sarcoma of mice [2]; mouse, in vivo): no effect
- 24 h inhibition ratio (%) ([3]; 10 μg/ml): 34.53%
- 24 h inhibition ratio (%) ([3]; 20 μg/ml): 89.07%
- inhibiting effect on the proliferation of Bel7402 cells [3]: evident inhibiting effect
- 24 h inhibition ratio (%) [4]: 99.16%

Structure (SMILES): Cc1nc(C)c(COC(=O)C2(C)CCC3(C)CCC4(C)C(=CC(=O)C5C6(C)CCC(O)C(C)(C)C6CCC54C)C3C2)nc1C (stereo not shown) [LQC-Y4, (3,5,6-trimethyl pyrazine-2-yl)methyl-10-hydroxy-2,4a,6a,6b,9,9,12a-heptamethyl-13-oxo-1,2,3,4,4a,5,6,6a,6b,7,8,8a,9,10,11,12,12a,12b,13,14b-eicosahydropicene-2-carboxylate]
- 24 h inhibition ratio (%) ([3]; 10 μg/ml): 39.31%
- 24 h inhibition ratio (%) ([3]; 20 μg/ml): 44.58%
- inhibiting effect on the proliferation of Bel7402 cells [3]: evident inhibiting effect
- 24 h inhibition ratio (%) [4]: 94.42%

Structure (SMILES): Cc1nc(C)c(COC(=O)c2cc(O)c3c(c2)C(=O)c2cccc(O)c2C3=O)nc1C [LQC-Y6, (3,5,6-trimethyl pyrazine-2-yl)methyl-4,5-dihydroxy-9,10-dioxo-9,10-dihydroanthracene-2-carboxylate]
- 24 h inhibition ratio (%) ([3]; 10 μg/ml): 26.75%
- 24 h inhibition ratio (%) ([3]; 20 μg/ml): 67.23%
- inhibiting effect on the proliferation of Bel7402 cells [3]: inhibiting effect
- 24 h inhibition ratio (%) [4]: 81.21%

Structure (SMILES): Cc1nc(C)c(COC(=O)C2=CC(O)C(O)C(O)C2)nc1C (stereo not shown) [LQC-Y10, (3,5,6-trimethyl pyrazine-2-yl)methyl 3,4,5-trihydroxycyclohexyl-1-ene formate]
- 24 h inhibition ratio (%) ([3]; 20 μg/ml): 7.82%
- inhibiting effect on the proliferation of Bel7402 cells [3]: inhibiting effect
- 24 h inhibition ratio (%) [4]: 5.69%
